{"source": "PubChem BioAssay (NCI)", "note": "Several values for one entry are separate records, joined by “and”; a condition that tells them apart may be missing. Equal entries are not always repeated.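 Dose response: 5 concentrations. Exposure: 48 h. Format: 96-well plates. Endpoint: linear interpolation; highest concentration if not reached. Here, GI50 denotes the concentration required for 50% inhibition of growth. TGI marks complete inhibition of growth.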", "data": [{"system": "MDA-MB-468 breast", "test": "NCI tumour cell line growth inhibition, 48 h", "values": [{"smiles": "NC(=O)c1cc(I)ccc1NC(=O)COc1ccccc1", "GI50": "311 nM"}, {"smiles": "Cc1cc(NC(=O)NC(=O)c2ccccc2N(C)C)ccc1Oc1ncc(Br)cn1", "GI50": "490 nM", "TGI": "> 100000 nM"}, {"smiles": "CCCCCCOc1ccc(C(=N)N(CCCC)CCCC)c2ccccc12", "GI50": "590 nM", "TGI": "2010 nM"}, {"smiles": "CCCNC(=O)CCC(C)[C@H]1CCC2C3C(C[C@H](OC(C)=O)[C@@]21C)[C@@]1(C)CCC2(C[C@H]1C[C@H]3OC(C)=O)OOC1(CCCCC1)OO2", "note": "(stereo not given in full)", "GI50": "1890 nM", "TGI": "6770 nM"}, {"smiles": "CCO/C=N/C1=C(C#N)C(c2ccc(Cl)cc2)c2sc3c(CC)cccc3c2O1", "note": "(stereo not given)", "GI50": "911 nM", "TGI": "11000 nM"}, {"smiles": "O=C(/C=C/c1cn(-c2ccccc2)nc1-c1ccc([N+](=O)[O-])cc1)c1ccc(Cl)cc1", "GI50": "2910 nM", "TGI": "> 100000 nM"}, {"smiles": "Oc1[nH]c2ccccc2c1/C=c1/cc2c(c(-c3ccc(C(F)(F)F)cc3)n1)=Nc1ccccc1-2", "GI50": "3820 nM", "TGI": "16100 nM"}, {"smiles": "Nc1ccn([C@@H]2C(F)=C(CO)[C@@H](O)[C@H]2O)c(=O)n1", "GI50": "31200 nM", "TGI": "> 100000 nM"}, {"smiles": "CC(=O)Oc1ccc(C2(c3ccc(OC(C)=O)cc3)C(=O)Nc3ccccc32)cc1", "GI50": "68.2 nM and 73.8 nM", "TGI": "40800 nM and 91000 nM"}, {"smiles": "Nc1ncnc2c1c(-c1ccc(Oc3ccccc3)cc1)nn2C[C@@H]1SSC[C@@H]1O", "GI50": "400 nM", "TGI": "2190 nM"}, {"smiles": "COc1ccc(-c2nc3c(c(=O)n2C(C)=O)C(c2ccc(Cl)cc2)c2sc4c(Cl)cccc4c2O3)cc1", "note": "(stereo not given)", "GI50": "234 nM", "TGI": "571 nM"}, {"smiles": "CN(C)CCCN1c2ccccc2Sc2ccc(Cl)cc21", "GI50": "1670 nM and 1810 nM", "TGI": "3540 nM and 4620 nM"}, {"smiles": "COc1cc2cc(Oc3ccc(NC(=O)c4cccc5c4OCCO5)cc3)c(C)nc2cc1OC", "GI50": "2930 nM", "TGI": "48700 nM"}, {"smiles": "Cn1cc(CO)c2ccccc21", "GI50": "10500 nM", "TGI": "48700 nM"}, {"smiles": "COc1ccc(NC(=O)c2sc3nc4c(cc3c2N)CCCC4)cc1", "GI50": "481 nM", "TGI": "96400 nM"}, {"smiles": "CN(C)C(=O)SC1=C(c2c(Cl)cccc2Cl)C(=O)c2ccccc21", "GI50": "1970 nM", "TGI": "4150 nM"}, {"smiles": "Fc1c[c-]c(-c2ccccn2)c(F)c1.[CH3-].[Pt+2].c1ccc(P(C[PH+](c2ccccc2)c2ccccc2)c2ccccc2)cc1", "GI50": "325 nM", "TGI": "946 nM"}, {"smiles": "O=c1oc2ccc(F)cc2c(=O)n1-c1ccc(Br)cc1F", "GI50": "1530 nM", "TGI": "5490 nM"}, {"smiles": "O=C(Cc1ccc(/C=C/C(=O)c2ncc[nH]2)cc1)Nc1ccc(C(F)(F)F)cc1", "GI50": "1770 nM", "TGI": "6840 nM"}, {"smiles": "COc1ccc2cc(-c3c(-c4ccncc4)nc(-c4ccc(S(C)=O)cc4C)n3C)ccc2c1", "note": "(stereo not given)", "GI50": "9070 nM", "TGI": "> 25000 nM"}, {"smiles": "CN(C)CCCC1(c2ccc(F)cc2)OCc2cc(-c3cncc4ccccc34)ccc21", "note": "(stereo not given)", "GI50": "1550 nM", "TGI": "3190 nM"}, {"smiles": "Cn1cnc([N+](=O)[O-])c1Sc1nc(N)nc2nc[nH]c12", "GI50": "884 nM", "TGI": "6110 nM"}, {"smiles": "CCCn1cnc2c(SCc3ccccc3)nc(N)nc21", "GI50": "23600 nM", "TGI": "> 100000 nM"}, {"smiles": "COc1ccc(-c2cc(/C=C/C(=O)c3cc(OC)c(OC)c(OC)c3)[nH]n2)cc1OC", "GI50": "1330 nM", "TGI": "3270 nM"}, {"smiles": "O=C(Nc1ccc(Cl)cc1)Nc1ccccc1CNc1nc(Nc2ccc(OCCN3CCCC3)cc2)ncc1Cl", "GI50": "998 nM", "TGI": "2280 nM"}, {"smiles": "C[C@@H]1C/C=C\\C(=O)O[C@H](/C=C/C#C/C=C/C(C)(C)[C@@H](O)c2cccc(O)c2Br)[C@@H](C)/C=C/[C@H](C)C[C@H](OC(N)=O)C1", "GI50": "61.1 nM", "TGI": "17800 nM"}, {"smiles": "COC(=O)[C@H](Cc1ccccc1)NC(=O)c1csc([C@@H](C[C@H](C(C)C)N(C)C(=O)[C@@H](NC(=O)[C@H]2CCCN2C)C2CC2)OC(C)=O)n1", "GI50": "153 nM", "TGI": "> 33300 nM"}, {"smiles": "COc1cc2nnn3c4ncccc4c(N=O)c3c2cc1OC", "GI50": "156 nM", "TGI": "1090 nM"}, {"smiles": "O=C1C=C(N2CCN(c3ccccn3)CC2)C(=O)c2c(O)ccc(O)c21", "GI50": "2750 nM"}, {"smiles": "CN(C)C/C=C/C(=O)Nc1ccc(C(=O)N2CCC[C@@H](Nc3ncc(Cl)c(-c4c[nH]c5ccccc45)n3)C2)cc1", "GI50": "24.9 nM", "TGI": "72.2 nM"}, {"smiles": "Cc1cc(=O)oc2cc(OCCn3c(C)nn(-c4ccc(Cl)cc4)c3=O)ccc12", "GI50": "2690 nM", "TGI": "57600 nM"}, {"smiles": "Cc1n(Cc2ccc3ccccc3c2)c(Cl)c(Cl)[n+]1Cc1ccc2ccccc2c1", "GI50": "1090 nM", "TGI": "2920 nM"}, {"smiles": "CCc1cccc(CC)c1/C=C/c1cncc(C(=O)NC)c1", "GI50": "4030 nM", "TGI": "20600 nM"}, {"smiles": "COc1ccc2[nH]c(-c3ccccc3)cc2c1", "GI50": "47000 nM", "TGI": "> 100000 nM"}, {"smiles": "c1ccc(CC(NCCNC(Cc2ccccc2)c2ccccc2)c2ccccc2)cc1", "note": "(stereo not given)", "GI50": "255 nM", "TGI": "745 nM"}, {"smiles": "COc1ccccc1/C=C\\C(=O)c1ccccc1", "GI50": "3970 nM", "TGI": "19100 nM"}, {"smiles": "C1=C2CNCC3=Cc4ccc5ccccc5c4OC23Oc2c1ccc1ccccc21", "GI50": "2060 nM", "TGI": "7550 nM"}, {"smiles": "COc1cc(-n2cc(-c3cc(O)c(C/C=C(\\C)CCC=C(C)C)c(O)c3)nn2)cc2c1O[C@]1(C)CC[C@@H](O)C(C)(C)[C@H]1C2", "GI50": "880 nM", "TGI": "4890 nM"}, {"smiles": "COc1ccc(C(=O)C[C@]2(O)C(=O)Nc3c(Cl)ccc(Cl)c32)cc1", "GI50": "395 nM", "TGI": "> 67100 nM"}, {"smiles": "CCC(=O)c1cc([N+](=O)[O-])c(Br)s1", "GI50": "1920 nM", "TGI": "3690 nM"}, {"smiles": "O=C(CCN1CCCC1)Nc1ccc2c(Nc3ccccc3)c3ccccc3nc2c1", "GI50": "182 nM", "TGI": "1600 nM"}, {"smiles": "CC[C@H](C)[C@H](NC(=O)[C@H]1CCCCN1C)C(=O)N(C)[C@H](C[C@@H](OC(C)=O)c1nc(C(=O)N[C@@H](Cc2ccccc2)C[C@H](C)C(=O)OC)cs1)C(C)C", "TGI": "4450 nM"}, {"smiles": "CCNC(=O)Oc1ccc(/C(=C(/C)c2ccc(OC)cc2)c2ccc(OCCN3CCCCCC3)cc2)cc1", "GI50": "2050 nM", "TGI": "8090 nM"}, {"smiles": "O=C(Nc1ccccc1O)c1ccc(CNC(=O)c2ccsc2Nc2ccnc(C(F)(F)F)c2)cc1", "GI50": "1430 nM", "TGI": "3530 nM"}]}]}
